Experimental data from US20240207458A1, “TARGETED ALPHA PARTICLE THERAPY FOR SOMATOSTATIN RECEPTOR 2 POSITIVE NEUROENDOCRINE TUMORS AND METASTASES” (H. LEE MOFFITT CANCER CENTER AND RESEARCH INSTITUTE, INC., priority 2021, published 2024).
Values belong to the compound of their own block, whether it stands above or below them. Bridge positions count the residues as written; N and C are the ends. Square brackets hold non-standard residues; d marks the D form. Peptide text beside a SMILES is read from it. * marks the point of attachment. DOTA = O=C(O)CN1CCN(CC(=O)O)CCN(CC(=O)*)CCN(CC(=O)O)CC1

How the values were obtained:
[1] = 225Ac chelate, non-tumor bearing BALB/c mice
Description: BD of ^225Ac-DOTA-linker-TATE derivatives in non-tumor bearing BALB/c mice: The biodistribution studies for all 5 compounds were conducted (FIG. 4 and Table 1).

in vitro = in vitro ADME; conditions: human, plasma
Description: The compound was >95% intact after 5 days incubation.

[2] = parameters: species or system BALB/c mice; conditions: mouse, in vivo
Description: (§1) Non-tumor bearing BALB/c mice were tested for toxicity and BD. […] RD was calculated using the BD data.
(§2) RD calculations determined pharmacokinetics parameters and absorbed α-emission dosages from ^225Ac and its daughters.

[3] = mouse, in vivo
Description: as §1, §2

[4] = Log D7.4, miniaturized shake flask assay (n-octanol/PBS pH 7.4); type: physicochemical; conditions: for LogD7.4: metal chelate as named (Eu or La); for Log D7.4 of La^3+ chelate: La3+ chelate, n-octanol/PBS
Description: Log D7.4 measurements of the La^3+-labeled derivatives: The octanol-water partition coefficients at pH7.4 (LogD7.4) of DOTA-linker-TATE derivatives were determined using the miniaturized shake flask assay (Table 1). Briefly, 1:1 n-octanol (HPLC grade) was added to the solution of the test compound in PBS buffer (NaH2PO4/Na2HPO4 buffer, pH 7.4). The mixture was well mixed and then two layers were separated by centrifuge. The concentrations of compound in each layer were determined by HPLC.

SSTR2 receptor = molecular target: T1, SSTR2 receptor (Homo sapiens, UniProt P30874); experiment: whole-cell competition binding assay with Eu-DOTATATE as competing ligand (Hek293/SSTR2 cells); conditions: FIGS. 5 and 6
T1 construct: expressed in transfected cells; host or cells: Hek293/SSTR2 cells
Description: Competition curves were analyzed with GraphPad Prism software using the sigmoidal dose-response (variable slope) classical equation for nonlinear regression analysis.

T1 sequence (P30874 whole entry): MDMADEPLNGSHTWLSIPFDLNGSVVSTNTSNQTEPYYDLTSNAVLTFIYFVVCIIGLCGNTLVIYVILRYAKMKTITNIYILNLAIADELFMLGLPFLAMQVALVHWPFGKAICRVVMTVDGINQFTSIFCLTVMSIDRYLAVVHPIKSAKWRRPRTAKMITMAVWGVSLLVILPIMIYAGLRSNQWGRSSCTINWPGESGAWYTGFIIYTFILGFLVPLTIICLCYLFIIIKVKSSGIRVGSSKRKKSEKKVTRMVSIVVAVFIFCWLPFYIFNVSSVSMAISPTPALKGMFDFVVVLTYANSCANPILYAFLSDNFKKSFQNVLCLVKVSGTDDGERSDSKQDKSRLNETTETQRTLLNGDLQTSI

Compound: C[C@@H](O)[C@H](NC(=O)[C@@H]1CSSC[C@H](NC(=O)[C@@H](Cc2ccccc2)NC(=O)CCCCCNC(=O)CN2CCN(CC(=O)O)CCN(CC(=O)O)CCN(CC(=O)O)CC2)C(=O)N[C@@H](Cc2ccc(O)cc2)C(=O)N[C@H](Cc2c[nH]c3ccccc23)C(=O)N[C@@H](CCCCN)C(=O)N[C@@H]([C@@H](C)O)C(=O)N1)C(=O)O [Compound 2, DOTA-Ahx-TATE]
Kidney/Liver uptake ratio (24 h) [1]: 5.3

Compound: CC(C)C[C@@H](NC(=O)[C@@H](Cc1ccccc1)NC(=O)CN1CCN2CCN3CCN(CC1)CC(=O)[O][139La]([O]C(=O)C2)[O]C(=O)C3)C(=O)N[C@H](Cc1ccccc1)C(=O)N[C@H]1CSSC[C@@H](C(=O)N[C@H](C(=O)O)[C@@H](C)O)NC(=O)[C@H]([C@@H](C)O)NC(=O)[C@H](CCCCN)NC(=O)[C@@H](Cc2c[nH]c3ccccc23)NC(=O)[C@H](Cc2ccc(O)cc2)NC1=O [Compound 15, 139La-DOTA-D-Phe-D-Leu-TATE]
binding affinity for the SSTR2 receptor (SSTR2 receptor): high binding affinity (low nM Ki)

Compound: C[C@@H](O)[C@H](NC(=O)[C@@H]1CSSC[C@H](NC(=O)[C@@H](Cc2ccccc2)NC(=O)CN2CCN(CC(=O)O)CCN(CC(=O)O)CCN(CC(=O)O)CC2)C(=O)N[C@@H](Cc2ccc(O)cc2)C(=O)N[C@H](Cc2c[nH]c3ccccc23)C(=O)N[C@@H](CCCCN)C(=O)N[C@@H]([C@@H](C)O)C(=O)N1)C(=O)O [Compound 1, DOTA-TATE, reference compound]
Kidney/Liver uptake ratio (24 h) [1]: 3.6

Compound: C[C@@H](O)[C@H](NC(=O)[C@@H]1CSSC[C@H](NC(=O)[C@@H](Cc2ccccc2)NC(=O)[C@@H](CCC(=O)O)NC(=O)[C@@H](CCC(=O)O)NC(=O)CN2CCN(CC(=O)O)CCN(CC(=O)O)CCN(CC(=O)O)CC2)C(=O)N[C@@H](Cc2ccc(O)cc2)C(=O)N[C@H](Cc2c[nH]c3ccccc23)C(=O)N[C@@H](CCCCN)C(=O)N[C@@H]([C@@H](C)O)C(=O)N1)C(=O)O [Compound 3, DOTA-di-D-Glu-TATE]
Kidney/Liver uptake ratio (24 h) [1]: 16.5

Compound: C[C@@H](NC(=O)[C@@H](Cc1ccccc1)NC(=O)CN1CCN2CCN3CCN(CC1)CC(=O)[O][139La]([O]C(=O)C2)[O]C(=O)C3)C(=O)N[C@H](Cc1ccccc1)C(=O)N[C@H]1CSSC[C@@H](C(=O)N[C@H](C(=O)O)[C@@H](C)O)NC(=O)[C@H]([C@@H](C)O)NC(=O)[C@H](CCCCN)NC(=O)[C@@H](Cc2c[nH]c3ccccc23)NC(=O)[C@H](Cc2ccc(O)cc2)NC1=O [Compound 14, 139La-DOTA-D-Phe-D-Ala-TATE]
binding affinity for the SSTR2 receptor (SSTR2 receptor): high binding affinity (low nM Ki)

Further lines, with some results ahead:

Kidney/Liver uptake ratio (24 h) [1]: 89.6
Compound: C[C@@H](O)[C@H](NC(=O)[C@@H]1CSSC[C@H](NC(=O)[C@@H](Cc2ccccc2)NC(=O)[C@@H](CCCCN)NC(=O)[C@@H](CCCCN)NC(=O)CN2CCN(CC(=O)O)CCN(CC(=O)O)CCN(CC(=O)O)CC2)C(=O)N[C@@H](Cc2ccc(O)cc2)C(=O)N[C@H](Cc2c[nH]c3ccccc23)C(=O)N[C@@H](CCCCN)C(=O)N[C@@H]([C@@H](C)O)C(=O)N1)C(=O)O [Compound 4, DOTA-di-D-Lys-TATE]

remaining at 120 h (in vitro): 96.7 ± 2.06%
% Intact TLC scanner (in vitro; 24 h): 100.44 ± 0.88%
% Intact TLC scanner (in vitro; 72 h): 99.27 ± 0.29%
% Intact TLC scanner (in vitro; 168 h): 93.19 ± 1.50%
% Intact TLC scanner (in vitro; 240 h): 90.29 ± 4.00%
primary route of elimination [2]: renal route
Compound: C[C@@H](O)[C@H](NC(=O)[C@@H]1CSSC[C@H](NC(=O)[C@@H](Cc2ccccc2)NC(=O)CN2CCN(CC(=O)O)CCN(CC(=O)O)CCN(CC(=O)O)CC2)C(=O)N[C@@H](Cc2ccc(O)cc2)C(=O)N[C@H](Cc2c[nH]c3ccccc23)C(=O)N[C@@H](CCCCN)C(=O)N[C@@H]([C@@H](C)O)C(=O)N1)C(=O)O [^225Ac-DOTATATE, metal not drawn]
appearance / indications of toxicity [3]: no indications of toxicity

Kidney/Liver uptake ratio (24 h) [1]: 87.6
Compound: DOTA-D-Lys-D-Glu-TATE [Compound 5]

LogD7.4 [4]: −2.80
Compound: Eu-DOTA-TATE [Compound 6, reference compound]

Log D7.4 of La^3+ chelate [4]: −3.10
LogD7.4 [4]: −3.10
Compound: C[C@@H](O)[C@H](NC(=O)[C@@H]1CSSC[C@H](NC(=O)[C@@H](Cc2ccccc2)NC(=O)[C@@H](CCC(=O)O)NC(=O)[C@@H](CCCCN)NC(=O)CN2CCN(CC(=O)O)CCN(CC(=O)O)CCN(CC(=O)O)CC2)C(=O)N[C@@H](Cc2ccc(O)cc2)C(=O)N[C@H](Cc2c[nH]c3ccccc23)C(=O)N[C@@H](CCCCN)C(=O)N[C@@H]([C@@H](C)O)C(=O)N1)C(=O)O [Compound 11, La-DOTA-D-Lys-D-Glu-TATE] ({DOTA}-[dK][dE][dF]CY[dW]KTCT-OH; disulfide 4-9)

Log D7.4 of La^3+ chelate [4]: −3.28
LogD7.4 [4]: −3.28
Compound: C[C@@H](O)[C@H](NC(=O)[C@@H]1CSSC[C@H](NC(=O)[C@@H](Cc2ccccc2)NC(=O)[C@@H](CCCCN)NC(=O)[C@@H](CCCCN)NC(=O)CN2CCN(CC(=O)O)CCN(CC(=O)O)CCN(CC(=O)O)CC2)C(=O)N[C@@H](Cc2ccc(O)cc2)C(=O)N[C@H](Cc2c[nH]c3ccccc23)C(=O)N[C@@H](CCCCN)C(=O)N[C@@H]([C@@H](C)O)C(=O)N1)C(=O)O [Compound 10, La-DOTA-D-Lys-D-Lys-TATE]
